7 molecules from patent publication US12590062B2, “PD-1/PD-L1 inhibitors” (Gilead Sciences, Inc., priority 2017, dated 2026) can be followed below.

T1 sequence (Q9NZQ7 19-290): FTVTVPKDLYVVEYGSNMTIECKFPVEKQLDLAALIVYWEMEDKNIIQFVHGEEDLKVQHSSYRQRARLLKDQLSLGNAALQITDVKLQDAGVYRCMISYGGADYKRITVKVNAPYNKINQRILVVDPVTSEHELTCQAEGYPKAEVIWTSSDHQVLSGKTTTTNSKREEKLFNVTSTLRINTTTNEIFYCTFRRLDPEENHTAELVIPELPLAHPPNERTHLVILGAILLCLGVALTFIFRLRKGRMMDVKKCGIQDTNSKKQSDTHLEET

This assay addresses T1, PD-1/PD-L1 interaction (Homo sapiens, UniProt Q9NZQ7).
T1 construct: expressed in transfected cells; host or cells: CHO cells (aAPC-PD-L1) co-cultured with Jurkat cells overexpressing PD-1 and an NFAT-luciferase reporter
Briefly: PD-1/PD-L1 NFAT reporter co-culture assay. The assay is classed as cell-based. The following applies: Jurkat PD-1 NFAT-luciferase cells co-cultured with aAPC-PD-L1 CHO cells, 6 hrs at 37° C.; read-out: EC50 NFAT Luciferase. As to the method: PD-1/PD-L1 NEAT Reporter Assay:
Compounds were tested in afunctional co-culture reporter assay in which TCR-mediated NFAT activity is inhibited by the engagement of PD-1 with PD-L1. […] CHO cells expressing surface-bound anti-CD3 antibodies and PD-L1 (artificial antigen presenting cells, aAPC-PD-L1) were first seeded overnight. Jurkat cells overexpressing PD-1 and expressing a luciferase construct under NFAT control are diluted in RPMI assay medium (RPMI 1640 with 2% FBS), mixed with compounds, and immediately seeded on the monolayer of aAPC-PD-L1. The co-culture is then incubated for 6 hrs at 37° C. Luciferase activity is assessed by adding the ONE-Glo reagent and measuring luminescence with a plate reader. EC50 values are calculated from the fit of the dose-response curves to a four-parameter equation (Table 3).
One may read the EC50 as the concentration at which the effect is half-maximal. On to `C=CCOC(=O)[C@H]1CCN[C@H]1c1cc(Cl)c(OCc2cccc(-c3cccc(COc4nc(OC)c([C@@H]5NCC[C@@H]5C(=O)O)cc4Cl)c3C)c2C)nc1OC` [Example 105, (2R,3S)-2-(6-((3′-(((5-((2R,3S)-3-((allyloxy)carbonyl)pyrrolidin-2-yl)-3-chloro-6-methoxypyridin-2-yl)oxy)methyl)-2,2′-dimethyl-[1,1′-biphenyl]-3-yl)methoxy)-5-chloro-2-methoxypyridin-3-yl)pyrrolidine-3-carboxylic acid], for which the EC50 is not below 50 µM.

On to `Cc1c(-c2ccc(OCCNC[C@H](O)CC(=O)O)cc2)cccc1-c1cccc(-c2ccc(OCCNC[C@H](O)CC(=O)O)cc2)c1C` [Example 107, (3R,3′R)-4,4′-((((2′,2″-dimethyl-[1,1′:3′,1″:3″,1′″-quaterphenyl]-4,4′″-diyl)bis(oxy))bis(ethane-2,1-diyl))bis(azanediyl))bis(3-hydroxybutanoic acid)], for which the EC50 came out at 35 µM.

`Cc1c(COc2cc(OCc3cncc(C#N)c3)c(CNC[C@@H](O)CC(=O)O)cc2Cl)cccc1-c1ccc2c(c1)OC(CNC[C@@H](O)CC(=O)O)CO2` (stereo partly drawn) [Example 108, (3S)-4-((4-((3-(3-((((S)-3-carboxy-2-hydroxypropyl)amino)methyl)-2,3-dihydrobenzo[b] [1,4]dioxin-6-yl)-2-methylbenzyl)oxy)-5-chloro-2-((5-cyanopyridin-3-yl)methoxy)benzyl)amino)-3-hydroxybutanoic acid]: the EC50 was 13.9 µM.

Turning to `COc1nc(OCc2cccc(-c3cccc(COc4nc(OC)c(CN[C@@H](CCC(N)=O)C(=O)O)cc4Br)c3C)c2C)c(Br)cc1CN[C@@H](CCC(N)=O)C(=O)O` [Example 115, (2S,2′S)-2,2′-((((((2,2′-dimethyl-[1,1′-biphenyl]-3,3′-diyl)bis(methylene))bis(oxy))bis(5-bromo-2-methoxypyridine-6,3-diyl))bis(methylene))bis(azanediyl))bis(5-amino-5-oxopentanoic acid)], the EC50 is not below 50 µM.

Regarding `Cc1c(COc2nc(OCc3cc(C#N)cc(C#N)c3)c(CNCC(=O)O)cc2Cl)cccc1-c1cccc(COc2nc(OCc3cc(C#N)cc(C#N)c3)c(CNCC(=O)O)cc2Cl)c1C` [Example 125, 2,2′-((((((2,2′-dimethyl-[1,1′-biphenyl]-3,3′-diyl)bis(methylene))bis(oxy))bis(5-chloro-2-((3,5-dicyanobenzyl)oxy)pyridine-6,3-diyl))bis(methylene))bis(azanediyl))diacetic acid], the EC50 was 0.158 µM.

In the case of `Cc1c(COc2nc(OCCc3cc(C#N)ccn3)c(CNC[C@@H](O)CC(=O)O)cc2Br)cccc1-c1cccc(COc2nc(OCCc3cc(C#N)ccn3)c(CNC[C@@H](O)CC(=O)O)cc2Br)c1C` [Example 128, (3S,3′S)-4,4′-((((((2,2′-dimethyl-[1,1′-biphenyl]-3,3′-diyl)bis(methylene))bis(oxy))bis(5-bromo-2-(2-(4-cyanopyridin-2-yl)ethoxy)pyridine-6,3-diyl))bis(methylene))bis(azanediyl))bis(3-hydroxybutanoic acid)], the EC50 stood at 0.234 µM.

With `Cc1c(COc2nc(OCc3cnn(C)c3)c(CNC[C@@H](O)CC(=O)O)cc2Cl)cccc1-c1cccc(COc2nc(OCc3cnn(C)c3)c(CNC[C@@H](O)CC(=O)O)cc2Cl)c1C` [Example 136, (3S,3′S)-4,4′-((((((2,2′-dimethyl-[1,1′-biphenyl]-3,3′-diyl)bis(methylene))bis(oxy))bis(5-chloro-2-((1-methyl-1H-pyrazol-4-yl)methoxy)pyridine-6,3-diyl))bis(methylene))bis(azanediyl))bis(3-hydroxybutanoic acid)], the EC50 stood at 0.529 µM.
